Measurements as given in US9951049B2, “Pyrazole linked benzimidazole conjugates and a process for preparation thereof” (Council of Scientific & Industrial Reseach, priority 2014, dated 2018).

What was measured:
UACC-254 = assay: NCI SRB screen, UACC-254; conditions: Homo sapiens, read-out: GI50 values
MDA-MB-468 = assay: NCI SRB screen, MDA-MB-468; conditions: Homo sapiens, MDA-MB-468, read-out: GI50 values

Row | Structure (SMILES) | GI50 (UACC-254) | GI50 (MDA-MB-468)
1 | Fc1ccc2[nH]c(-c3cc(-c4ccc5c(c4)OCO5)n[nH]3)nc2c1 [7g, 2-(3-(benzo[d][1,3]dioxol-5-yl)-1H-pyrazol-5-yl)-5-fluoro-1H-benzo[d]imidazole] | 1020 nM | 
2 | COc1ccc2[nH]c(-c3cc(-c4cc(OC)c(OC)c(OC)c4)n[nH]3)nc2c1 [9f, 5-methoxy-2-(3-(3,4,5-trimethoxyphenyl)-1H-pyrazol-5-yl)-1H-benzo[d]imidazole] |  | 380 nM
